Consider 38 molecules from patent US9090593B2, “Bicyclic compounds as Pim inhibitors” (AMGEN INC., priority 2010, dated 2015).

For assay [1], the target named is T1, full length recombinant Pim-2 protein (Homo sapiens, UniProt Q9P1W9).
T1 construct: by full length recombinant Pim-1, Pim-2, or Pim-3 protein; hexahistidine tag followed by a thrombin cleavage site (N); made in house; host or cells: Sf9 (baculovirus) or E. coli (pET28)
Briefly: Pim-2 enzyme assay (HTRF, phosphorylation of biotinylated-BAD (S112) peptide). In kind it is biochemical. The following applies: read-out: Pim2_IC50. The text has this:
(§1) These cDNAs were used as templates in PCR reactions to produce full-length DNA clones of the PIMs. […] PCR products were digested with […] and EcoRI for Pim-1 and BamHI and EcoRI for Pim-2 and ligated into a modified baculovirus transfer vector (pFastBac1) cleaved with BamHI and EcoRI. For bacterial expression, the same cleaved PCR products encoding Pim-1 or Pim-2 were ligated into a modified E. coli expression vector pET28(a) cleaved with BamHI and EcoRI Amino-terminal hexahistidine tags followed by a thrombin cleavage site were previously added to the vectors using standard methods of molecular biology. Recombinant baculoviruses expressing Pim-1 or Pim-2 were made using standard methods (Fastbac manual, Invitrogen, Carlsbad, Calif.). Infection of Sf9 cells was done at an m.o.i. of greater than 5 for 24-48 h. Cells were harvested by centrifugation and frozen at −80 C. For E. coli expression, cells carrying pET28-His6-Th-Pim-1 or pET28-His6-Th-Pim-2 were picked from a single colony and grown o/n in LB media. The o/n culture was used to inoculate a 2 liter flask with 500 mL media. This was grown o/n and used to inoculate 15-20 liters of Terrific Broth in a New Brunswick Scientific fermentor. The E. coli were grown at 37° C. to and OD600>1.6. The temperature was dropped to 18° C. and o/n expression was induced with 0.5 mM IPTG. Cells were harvested by centrifugation and frozen at −80° C.
(§2) This step was repeated 3× and the resin was transferred to a 2.5 cm glass column. Ten column volumes of wash buffer (0.05 M HEPES, pH 8.0, 0.1 M NaCl, 0.01 M 2-mercaptoethanol, 10% (w/v) glycerol) were applied to the resin followed by 10 column volumes of elution buffer (0.05 M HEPES, pH 8.0, 0.25 M NaCl, 0.01 M 2-mercaptoethanol, 10% (w/v) glycerol, 0.1 M imidazole). Fractions were analyzed by SDS-PAGE and those containing the protein of interest were pooled and concentrated. The concentrated protein was applied to an Amersham Superdex 75 (XK 26/60) column equilibrated in 0.025 M Tris-HCl, pH 7.5, 0.1 M NaCl, 0.01 M 2-mercaptoethanol, 10% (w/v) glycerol. […] Fractions containing the monomeric protein of interest were pooled, concentrated to ˜2 mg/mL, and stored at −80° C.
(§3) The phosphorylation of biotinylated-BAD (S112) peptide by full length recombinant Pim-1, Pim-2, or Pim-3 protein was detected with streptavidin:Allophycocyanin (APC) conjugate and a europium (Eu) labeled antibody directed against phosphorylated-BAD (S112). […] The fluorescence is directly proportional to the amount of phosphorylated BAD peptide present in the reaction.
(§4) A reference compound was included on each assay plate in order to validate that plate; on one plate of every assay run, two additional reference compounds were included.
(§5) The final buffer conditions were as follows: 60 mM Hepes, pH 7.0, 0.05% BSA, 2 mM DTT. […] The reaction was stopped by the addition of 3 mM EDTA, and fluorescence was measured by an HTRF® Rubystar microplate reader. For each plate, percent of control (POC) values were calculated for each well. Values for the IC50 IP were estimated using a standard 4-parameter logistic model.
(In general: In TR-FRET formats the signal depends on donor and acceptor labels being close together.)

Assay [2] deals with T2, full length recombinant Pim-1 protein (Homo sapiens, UniProt P11309).
T2 construct: by full length recombinant Pim-1, Pim-2, or Pim-3 protein; hexahistidine tag followed by a thrombin cleavage site (N); made in house; host or cells: Sf9 (baculovirus) or E. coli (pET28)
In words: Pim-1 enzyme assay (HTRF, phosphorylation of biotinylated-BAD (S112) peptide). In kind it is biochemical. To be noted: read-out: Pim_1_IC50.
Text: as §1, §2, §3, §4, §5

T2 sequence (P11309 whole entry): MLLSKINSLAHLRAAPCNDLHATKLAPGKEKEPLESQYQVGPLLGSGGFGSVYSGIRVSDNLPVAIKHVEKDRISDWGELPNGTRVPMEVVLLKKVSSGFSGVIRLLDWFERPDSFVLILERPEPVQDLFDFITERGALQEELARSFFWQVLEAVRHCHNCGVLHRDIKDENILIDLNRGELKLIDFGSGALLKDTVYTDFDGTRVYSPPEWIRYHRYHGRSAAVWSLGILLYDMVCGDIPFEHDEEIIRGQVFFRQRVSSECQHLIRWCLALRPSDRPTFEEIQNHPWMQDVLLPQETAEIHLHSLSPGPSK
T1 sequence (Q9P1W9 whole entry): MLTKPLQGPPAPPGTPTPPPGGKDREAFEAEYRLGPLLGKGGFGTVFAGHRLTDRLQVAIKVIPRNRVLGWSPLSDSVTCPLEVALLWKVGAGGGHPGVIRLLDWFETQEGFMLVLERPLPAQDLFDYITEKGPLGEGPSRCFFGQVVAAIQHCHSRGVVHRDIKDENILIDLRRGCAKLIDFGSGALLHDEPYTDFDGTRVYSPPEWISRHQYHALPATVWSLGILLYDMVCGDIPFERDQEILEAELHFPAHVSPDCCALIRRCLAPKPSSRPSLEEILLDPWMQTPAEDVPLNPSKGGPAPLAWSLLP

As for `CC(C)Oc1cncc(-c2ccc3[nH]cc(-c4nn(C(C)C)c(=O)o4)c3c2)n1` [Example 281, 5-(5-(6-isopropoxypyrazin-2-yl)-1H-indol-3-yl)-3-isopropyl-1,3,4-oxadiazol-2(3H)-one], the IC50 in assay [1] turned out to be 597 nM; in assay [2] it was 70 nM.
The matching figures for `CN(C)C(=O)c1ccc2[nH]nc(-c3ccnc(N4CCC(N)CC4)n3)c2c1` [Example 284, 3-(2-(4-aminopiperidin-1-yl)pyrimidin-4-yl)-N,N-dimethyl-1H-indazole-5-carboxamide]: over 1000 nM and 839 nM.
Regarding `CN(C)c1nc(-c2n[nH]c3ccc(Nc4c(F)cccc4F)cc23)cc(=O)[nH]1` [Example 285, 6-(5-((2,6-difluorophenyl)amino)-1H-indazol-3-yl)-2-(dimethylamino) pyrimidin-4(3H)-one], the figures for the IC50 in assay [1] and in assay [2] were 67 nM and 20 nM, respectively.
Take `COc1cnnc(-c2c[nH]c3ccc(-c4ccccc4F)nc23)c1` [Example 286, 5-(2-fluorophenyl)-3-(5-methoxypyridazin-3-yl)-1H-pyrrolo[3,2-b]pyridine]: the IC50 in assay [1] was over 1000 nM; in assay [2], 581 nM.
In the case of `NC1CCN(c2cc(-c3c[nH]c4ccc(-c5ccccc5F)nc34)nc(O)n2)CC1` [Example 288, 4-(4-aminopiperidin-1-yl)-6-(5-(2-fluorophenyl)-1H-pyrrolo[3,2-b]pyridin-3-yl)pyrimidin-2-ol], the IC50 in assay [1] turned out to be 968 nM; in assay [2], 364 nM.
With `N#Cc1cc(-c2ccc3[nH]cc(-c4cncc(O[C@@H]5CCCNC5)n4)c3c2)ccc1F` [Example 295], the IC50 in assay [1] was 75 nM; in assay [2] it was 34 nM.
The corresponding values for `N#Cc1ccc(-c2ccc3[nH]cc(-c4cncc(O[C@@H]5CCCNC5)n4)c3c2)cc1F` [Example 296] are 55 nM and 37 nM.
In the case of `c1cc(OC2CCCC2)nc(-c2ccc3[nH]cc(-c4cncc(O[C@@H]5CCCNC5)n4)c3c2)c1` [Example 298], the IC50 in assay [1] stood at 234 nM; in assay [2], 31 nM.
The corresponding values for `c1cnn(-c2cnc(-c3ccc4[nH]cc(-c5cncc(O[C@@H]6CCCNC6)n5)c4c3)cn2)c1` [Example 300] are 115 nM and 42 nM.
The corresponding values for `CC1CCN(c2cccc(-c3ccc4[nH]cc(-c5cncc(O[C@@H]6CCCNC6)n5)c4c3)n2)CC1` [Example 304] are 619 nM and 52 nM.
The matching figures for `CCNC(=O)c1ccc(C)c(-c2ccc3[nH]cc(-c4cncc(O[C@@H]5CCCNC5)n4)c3c2)c1` [Example 313]: 515 nM and 234 nM.
Take `Cc1ccc(C(=O)NC2CCC2)cc1-c1ccc2[nH]cc(-c3cncc(O[C@@H]4CCCNC4)n3)c2c1` [Example 314]: the results for the IC50 in assay [1] and in assay [2] were 428 nM and 288 nM, respectively.
`COc1ccc(Cl)cc1-c1ccc2[nH]cc(-c3cncc(O[C@@H]4CCCNC4)n3)c2c1` [Example 317]: the figures for the IC50 in assay [1] and in assay [2] were 297 nM and 53 nM, respectively.
As for `c1cc2[nH]cc(-c3cncc(O[C@@H]4CCCNC4)n3)c2cc1-c1cncc(OC2CCCC2)n1` [Example 318], the IC50 in assay [1] worked out at 347 nM; in assay [2] it was 35 nM.
As for `CN(C)c1cnc(-c2ccc3[nH]cc(-c4cncc(O[C@@H]5CCCNC5)n4)c3c2)cn1` [Example 319], the IC50 in assay [1] was 68 nM; in assay [2], 24 nM.
`CC(C)c1ccc(-c2ccc3[nH]cc(-c4cncc(O[C@@H]5CCCNC5)n4)c3c2)cc1` [Example 322]: the IC50 in assay [1] amounted to 99 nM; in assay [2] it was 31 nM.
`O=C(O)c1cccc(-c2ccc3[nH]cc(-c4cncc(O[C@@H]5CCCNC5)n4)c3c2)c1` [Example 325]: the IC50 in assay [1] was found to be 46 nM; in assay [2] it was 21 nM.
As to `COc1ncccc1-c1ccc2[nH]cc(-c3cncc(O[C@@H]4CCCNC4)n3)c2c1` [Example 328], the results for the IC50 in assay [1] and in assay [2] were 141 nM and 28 nM, respectively.
The corresponding values for `COc1ccc(OC)c(-c2ccc3[nH]cc(-c4cncc(O[C@@H]5CCCNC5)n4)c3c2)c1` [Example 329] are 514 nM and 83 nM.
Turning to `Cc1cccc(-c2ccc3[nH]cc(-c4cncc(O[C@@H]5CCCNC5)n4)c3c2)c1C` [Example 330], the figures for the IC50 in assay [1] and in assay [2] were 268 nM and 54 nM, respectively.
As to `CC(C)Cc1ccc(-c2ccc3[nH]cc(-c4cncc(O[C@@H]5CCCNC5)n4)c3c2)cc1` [Example 332], the IC50 in assay [1] worked out at 156 nM; in assay [2], 43 nM.
Take `CS(=O)(=O)Nc1cc(-c2ccc3[nH]cc(-c4cncc(O[C@@H]5CCCNC5)n4)c3c2)cnc1Cl` [Example 334]: the IC50 in assay [1] stood at 149 nM; in assay [2], 72 nM.
The matching figures for `Nc1ccc(Oc2ncccc2-c2ccc3[nH]cc(-c4cncc(O[C@@H]5CCCNC5)n4)c3c2)cc1` [Example 337]: 592 nM and 56 nM.
For the molecule `c1cc2[nH]cc(-c3cncc(O[C@@H]4CCCNC4)n3)c2cc1-c1cncc(C2CCCN2)c1` (stereo partly shown) [Example 340], the IC50 was found to be 260 nM in assay [1] and 42 nM in assay [2].
In the case of `COc1cc(C#N)c(-c2ccc3[nH]cc(-c4cncc(O[C@@H]5CCCNC5)n4)c3c2)cc1OC(C)C` [Example 342], the values for the IC50 in assay [1] and in assay [2] were over 1000 nM and 159 nM, respectively.
For the molecule `COc1cc(C#N)cc(-c2ccc3[nH]cc(-c4cncc(O[C@@H]5CCCNC5)n4)c3c2)c1OC` [Example 346], the figures for the IC50 in assay [1] and in assay [2] were 363 nM and 105 nM, respectively.
Take `CCCOc1c(OC)cc(C#N)cc1-c1ccc2[nH]cc(-c3cncc(O[C@@H]4CCCNC4)n3)c2c1` [Example 348]: the IC50 is over 1000 nM in assay [1] and 364 nM in assay [2].
For the molecule `CC(=O)Nc1cc(-c2ccc3[nH]cc(-c4cncc(O[C@@H]5CCCNC5)n4)c3c2)cc(C(F)(F)F)c1` [Example 349], the IC50 stood at 290 nM in assay [1] and 30 nM in assay [2].
For the molecule `CC(C)Oc1ccc(-c2ccc3[nH]cc(-c4cncc(O[C@@H]5CCCNC5)n4)c3c2)cc1C#N` [Example 352], the IC50 in assay [1] came to 133 nM; in assay [2], 30 nM.
Consider `Cc1ccc(C(F)(F)F)cc1-c1ccc2[nH]cc(-c3cncc(O[C@@H]4CCCNC4)n3)c2c1` [Example 353], for which the IC50 in assay [1] is 889 nM; in assay [2], 159 nM.
As to `COc1cc(C#N)cc(-c2ccc3[nH]cc(-c4cncc(O[C@@H]5CCCNC5)n4)c3c2)c1OC(C)C` [Example 354], the IC50 in assay [1] is over 1000 nM; in assay [2] it was 834 nM.
The matching figures for `FC(F)(F)COc1cncc(-c2n[nH]c3ccc(-c4cncc(C5CC5)n4)cc23)n1` [Example 363]: 253 nM and 57 nM.
Turning to `c1cc(C2CC2)nc(-c2ccc3[nH]cc(-c4cncc(C5CC5)n4)c3c2)n1` [Example 370], the values for the IC50 in assay [1] and in assay [2] were over 1000 nM and 126 nM, respectively.
The corresponding values for `c1cc(C2CC2)nc(-c2c[nH]c3ccc(-c4cncc(C5CC5)n4)cc23)n1` [Example 371] are 113 nM and 26 nM.
On to `Cn1nccc1-c1ccc2[nH]nc(-c3cncc(O[C@@H]4CCCNC4)n3)c2c1` [Example 375], for which the values for the IC50 in assay [1] and in assay [2] were 243 nM and 75 nM, respectively.
Regarding `COc1cncc(-c2n[nH]c3ccc(-c4nccc(N5CCOC[C@@H]5C)n4)cc23)n1` [Example 376], the IC50 amounted to 275 nM in assay [1] and 21 nM in assay [2].
Consider `COc1cncc(-c2n[nH]c3ccc(-c4nccc(C(C)C)n4)cc23)n1` [Example 377], for which the IC50 in assay [1] came out at 231 nM; in assay [2], 55 nM.
On to `COc1cncc(-c2n[nH]c3ccc(-c4cc(C(F)(F)F)ccn4)cc23)n1` [Example 378], for which the IC50 in assay [1] was over 1000 nM; in assay [2] it was 627 nM.
